From patent US12144864B2, “Tubulysins and protein-tubulysin conjugates” (Regeneron Pharmaceuticals, Inc., priority 2018, dated 2024)
pIC50: −log10 of the molar value. Read-outs that look alike come from different tables or passages of the source.

Assays:
HCT15 cells = test: cells; assay type: cell-based, human; conditions: HCT15 cells; for HCT-15 + verapamil % Kill / HCT-15 % Kill: maximum % cell killing
Experimental: (§1) To test the ability of the disclosed tubulysin payloads to kill human cell lines, an in vitro cytotoxicity assay was performed. In vitro cytotoxicity of the disclosed payloads, as well as reference compounds, were evaluated using the CellTiter-Glo Assay Kit (Promega, Cat #G7573), in which the quantity of ATP present is used to determine the number of viable cells in culture. For the assay, C4-2, HEK293, or T47D cells were seeded at 4000 cells/well on Nunclon white 96-well plates in complete growth medium (DME high glucose:Ham's F12 at 4:1, 10% FBS, 100 units/ml Penicillin, 100 ug/ml streptomycin, 53 ug/ml glutatmine, 10 ug/ml insulin, 220 ng/ml biotin, 12.5 pg/ml T3, 12.5 ug/ml Adenine, 4 ug/ml transferrin for C42 cells; DME high glucose, 10% FBS, 100 units/ml Penicillin, 100 ug/ml streptomycin, 53 ug/ml glutatmine for HEK293; RPMI, 10% FBS, 100 units/ml Penicillin, 100 ug/ml streptomycin, 53 ug/ml glutatmine, 10 ug/ml insulin, 10 mM HEPEs, 200 nM Sodium Pyruvate for T47D cells) and grown overnight at 37° C. in 5% CO2. For cell viability curves, 1:3 serially diluted payloads were added to the cells at final concentrations ranging from 100 nM to […], including a no treatment control group, and were then incubated for 5 days. After the 5-day incubation, cells were incubated at room temperature with 100 μL of CellTiter-Glo reagents for 10 minutes. Relative luminescence units (RLU) were determined on a Victor plate reader (PerkinElmer). The IC50 values were determined from a four-parameter logistic equation over a 10-point response curve (GraphPad Prism). All IC50 values are expressed in molar (M) concentration. The percent cell killing (% kill) at the maximum concentration tested was estimated from the following formula (100−% viable cells). Averages±standard deviation (SD) are included where replicate experiments were performed.
In vitro cytotoxicity of the disclosed payloads as well as reference compounds were evaluated similarly as described above except using 1000 HCT15 cells, a colorectal carcinoma cell line, in growth medium (RPMI, 10% FBS, 100 units/ml Penicillin, 100 ug/ml streptomycin, 53 ug/ml glutatmine) with or without 5 ug/mL of Verapamil.

C4-2 cells = test: Cell-based killing assay of payloads (CellTiter-Glo), C4-2 cells; set-up: species or system human; conditions: 5-day incubation; for pIC50: Homo sapiens, C4-2, 120 h, average ± SD where replicates; for C4-2 % Kill: at maximum concentration tested (100 − % viable cells)
Experimental: as §1

H69AR cells = test: Cytotoxicity in panel of MDR cell lines, H69AR (72 h and 144 h); assay type: cell-based, human; conditions: for pIC50: Homo sapiens
Experimental: as §1
(§2) To further test the ability of the disclosed tubulysin payloads, a cytotoxicity assay was performed using a panel of multidrug resistant (MDR) cell lines. In vitro cytotoxicity of the disclosed payloads as well as reference compounds were similarly evaluated as described above except using HCT-15 cells, a colorectal carcinoma cell line; H69AR, a doxorubicin resistant MDR derivative of the small cell lung cancer carcinoma cell line NCI-H69; MES-SA/MX2, a mitoxantrone resistant MDR derivative of the uterine sarcoma cell line MES-SA; and HL60/MX2, a mitoxantrone resistant MDR derivative of the acute promyelocytic leukemia cell line HL60. In these assays, cytotoxicity was evaluated in normal growth media (RPMI, 10% FBS, 100 units/ml Penicillin, 100 ug/ml streptomycin, and 53 ug/ml glutatmine for HCT-15 and HL60/MX2; RPMI, 20% FBS, 100 units/ml Penicillin, 100 ug/ml streptomycin, and 53 ug/ml glutatmine for H69-AR; Waymouths's:McCoy's (1:1), 10% FBS, 100 units/ml Penicillin, 100 ug/ml streptomycin, and 53 ug/ml glutatmine for MES-SA/MX2) with 1000 cells per well following 72 h and 144 h incubation with payloads.

HCT-15 cells = test: Cytotoxicity in panel of MDR cell lines, HCT-15 (72 h and 144 h); assay type: cell-based, human; conditions: for pIC50: Homo sapiens
Experimental: as §1, §2

MES-SA/MX2 cells = test: Cytotoxicity in panel of MDR cell lines, MES-SA/MX2 (72 h and 144 h); assay type: cell-based, human; conditions: for pIC50: Homo sapiens
Experimental: as §1, §2

HL60/MX2 cells = test: Cytotoxicity in panel of MDR cell lines, HL60/MX2 (72 h and 144 h); assay type: cell-based, human; conditions: for pIC50: Homo sapiens
Experimental: as §1, §2

[1] = with 5 ug/mL Verapamil, read-out: HCT-15 + verapamil IC50
[2] = Homo sapiens, HCT-15, without Verapamil, read-out: HCT-15 IC50
[3] = 72 h incubation, read-out: H69AR IC50 72 h
[4] = 144 h incubation, read-out: H69AR IC50 144 h
[5] = 72 h incubation, read-out: HCT-15 IC50 72 h
[6] = 144 h incubation, read-out: HCT-15 IC50 144 h
[7] = with 5 ug/mL Verapamil, read-out: HCT-15 + verapamil IC50 (value in brackets)
[8] = Homo sapiens, HCT-15, without Verapamil, read-out: HCT-15 IC50 (value in brackets)

| SMILES | HCT-15 + verapamil % Kill (HCT15 cells; with 5 ug/mL Verapamil) [%] | pIC50 (HCT15 cells; [1]) | HCT-15 % Kill (HCT15 cells; without Verapamil) [%] | pIC50 (HCT15 cells; [2]) | pIC50 (C4-2 cells) | C4-2 % Kill (C4-2 cells) [%] | also measured |
| --- | --- | --- | --- | --- | --- | --- | --- |
| CCCCCCN(C(=O)[C@@H](NC(=O)[C@H]1CCCCN1C)[C@@H](C)CC)[C@H](C[C@@H](OC(C)=O)c1nc(C(=O)N[C@H](Cc2ccc(N)c(F)c2)CC(C)(C)C(=O)O)cs1)C(C)C [IVvA, 4-({2-[(1R,3R)-1-(Acetyloxy)-3-[(2S,3S)—N-hexyl-3-methyl-2-{[(2R)-1-methylpiperidin-2-yl]formamido}pentanamido]-4-methylpentyl]-1,3-thiazol-4-yl}formamido)-5-(4-amino-3-fluorophenyl)-2,2-dimethylpentanoic acid] | 97.1 | 8.71 | 99.2 | 8.28 | 7.96 | 96.7 | – |
| CCCCCCN(C(=O)[C@@H](NC(=O)[C@H]1CCCCN1C)[C@@H](C)CC)[C@H](C[C@@H](OC(C)=O)c1nc(C(=O)N[C@@H](Cc2ccc(F)cc2)C[C@H](C)C(=O)O)cs1)C(C)C [IVa, (2S,4R)-4-(2-((1R,3R)-1-Acetoxy-3-((2S,3S)—N-hexyl-3-methyl-2-((R)-1-methylpiperidine-2-carboxamido)pentanamido)-4-methylpentyl)thiazole-4-carboxamido)-5-(4-fluorophenyl)-2-methylpentanoic acid] | – | – | – | – | 10.19 | 95.2 | H69AR % Kill 72 h (H69AR cells; 72 h incubation): 96.1%; H69AR % Kill 144 h (H69AR cells; 144 h incubation): 99.3%; pIC50 (H69AR cells; [3]): 9.13; pIC50 (H69AR cells; [4]): 8.86; HCT-15 % Kill 72 h (HCT-15 cells; 72 h incubation): 97.8%; HCT-15 % Kill 144 h (HCT-15 cells; 144 h incubation): 99.6%; pIC50 (HCT-15 cells; [5]): 9.78; pIC50 (HCT-15 cells; [6]): 9.50 |
| CCCCCCN(C(=O)[C@@H](NC(=O)[C@H]1CCCCN1C)[C@@H](C)CC)[C@H](C[C@@H](OC(C)=O)c1nc(C(=O)N[C@@H](Cc2ccc(O)c(N)c2)CC(C)(C)C(=O)O)cs1)C(C)C [IVw, (S)-4-(2-((1R,3R)-1-Acetoxy-3-((2S,3S)—N-hexyl-3-methyl-2-((R)-1-methylpiperidine-2-carboxamido)pentanamido)-4-methylpentyl)thiazole-4-carboxamido)-5-(3-amino-4-hydroxyphenyl)-2,2-dimethylpentanoic acid] | 98.3 | 8.35 | 95.9 | 8.01 | < 7.00 | 27.9 | – |
| C#CCCCON(C(=O)[C@@H](NC(=O)[C@H]1CCCCN1C)[C@@H](C)CC)[C@H](C[C@@H](OC(C)=O)c1nc(C(=O)N[C@@H](Cc2ccc(O)cc2)CC(C)(C)C(=O)O)cs1)C(C)C [IX, (4S)-4-({2-[(1R,3R)-1-(Acetyloxy)-4-methyl-3-[(2S,3S)-3-methyl-2-{[(2R)-1-methylpiperidin-2-yl]formamido}-N-(pent-4-yn-1-yloxy)pentanamido]pentyl]-1,3-thiazol-4-yl}formamido)-5-(4-hydroxyphenyl)-2,2-dimethylpentanoic acid] | – | – | – | – | 10.27 | – | pIC50 (HCT15 cells; [7]): 9.79; pIC50 (HCT15 cells; [8]): 9.77 |
| CCCCCON(C(=O)[C@@H](NC(=O)[C@H]1CCCCN1C)[C@@H](C)CC)[C@H](C[C@@H](OC(C)=O)c1nc(C(=O)N[C@@H](Cc2ccc(O)cc2)CC(C)(C)C(=O)O)cs1)C(C)C [X, (4S)-4-({2-[(1R,3R)-1-(Acetyloxy)-4-methyl-3-[(2S,3S)-3-methyl-2-{[(2R)-1-methylpiperidin-2-yl]formamido}-N-(pentyloxy)pentanamido]pentyl]-1,3-thiazol-4-yl}formamido)-5-(4-hydroxyphenyl)-2,2-dimethylpentanoic acid] | – | – | – | – | 10.22 | – | pIC50 (HCT15 cells; [7]): 9.94; pIC50 (HCT15 cells; [8]): 10.01 |
| CCCCCCON(C(=O)[C@@H](NC(=O)[C@H]1CCCCN1C)[C@@H](C)CC)[C@H](C[C@@H](OC(=O)NCCC)c1nc(C(=O)N[C@@H](Cc2ccc(O)cc2)C[C@H](C)C(=O)O)cs1)C(C)C [VIc, (2S,4R)-5-(4-Hydroxyphenyl)-4-(2-((7R,9R)-9-isopropyl-10-((2S,3S)-3-methyl-2-((R)-1-methylpiperidine-2-carboxamido)pentanoyl)-5-oxo-6,11-dioxa-4,10-diazaheptadecan-7-yl)thiazole-4-carboxamido)-2-methylpentanoic acid] | 98.8 | 9.54 | 94 | 7.88 | 8.88 | 95.5 ± 1.8 | – |
| CCCC(=O)OCN(C(=O)[C@@H](NC(=O)[C@H]1CCCCN1C)[C@@H](C)CC)[C@H](C[C@@H](OC(C)=O)c1nc(C(=O)N[C@@H](Cc2ccc(O)cc2)C[C@H](C)C(=O)O)cs1)C(C)C [reference compound] | 99.1 | 9.89 | 99.1 | 9.29 | 9.96 | 96.4 | MES-SA/MX2 % Kill 72 h (MES-SA/MX2 cells; 72 h incubation): 98.6%; MES-SA/MX2 % Kill 144 h (MES-SA/MX2 cells; 144 h incubation): 99.9%; pIC50 (MES-SA/MX2 cells; 72 h incubation, read-out: MES-SA/MX2 IC50 72 h): 9.24; pIC50 (MES-SA/MX2 cells; 144 h incubation, read-out: MES-SA/MX2 IC50 144 h): 8.88; HL60/MX2 % Kill 72 h (HL60/MX2 cells; 72 h incubation): 98%; HL60/MX2 % Kill 144 h (HL60/MX2 cells; 144 h incubation): 100%; pIC50 (HL60/MX2 cells; 72 h incubation, read-out: HL60/MX2 IC50 72 h): > 10.82; pIC50 (HL60/MX2 cells; 144 h incubation, read-out: HL60/MX2 IC50 144 h): > 10.82 |
| CCCCCCON(C(=O)[C@@H](NC(=O)[C@H]1CCCCN1C)[C@@H](C)CC)[C@H](C[C@@H](OC(=O)NC)c1nc(C(=O)N[C@@H](Cc2ccc(O)cc2)C[C@H](C)C(=O)O)cs1)C(C)C [VIa, (2S,4R)-5-(4-Hydroxyphenyl)-4-(2-((5R,7R)-7-isopropyl-8-((2S,3S)-3-methyl-2-((R)-1-methylpiperidine-2-carboxamido)pentanoyl)-3-oxo-4,9-dioxa-2,8-diazapentadecan-5-yl)thiazole-4-carboxamido)-2-methylpentanoic acid] | 98.4 ± 0.7 | 9.59 | 97 ± 1.9 | 8.24 | 8.73 | 94.1 | H69AR % Kill 72 h (H69AR cells; 72 h incubation): 83.5%; H69AR % Kill 144 h (H69AR cells; 144 h incubation): 91.6%; pIC50 (H69AR cells; [3]): 7.80; pIC50 (H69AR cells; [4]): 7.10; HCT-15 % Kill 72 h (HCT-15 cells; 72 h incubation): 94%; HCT-15 % Kill 144 h (HCT-15 cells; 144 h incubation): 98.9%; pIC50 (HCT-15 cells; [5]): 8.27; pIC50 (HCT-15 cells; [6]): 8.14 |
| CC[C@H](C)[C@H](NC(=O)[C@H]1CCCCN1C)C(=O)N(CCCCc1cn(CCCC(=O)O)nn1)[C@H](C[C@@H](OC(C)=O)c1nc(C(=O)N[C@@H](Cc2ccc(N)cc2)CC(C)(C)C(=O)O)cs1)C(C)C [IVn, (S)-4-(2-((1R,3R)-1-Acetoxy-3-((2S,3S)—N-(4-(1-(3-carboxypropyl)-1H-1,2,3-triazol-4-yl)butyl)-3-methyl-2-((R)-1-methylpiperidine-2-carboxamido)pentanamido)-4-methylpentyl)thiazole-4-carboxamido)-5-(4-aminophenyl)-2,2-dimethylpentanoic acid] | 72.4 | < 7.52 | 30.9 | < 7.52 | < 7.00 | 30.2 | – |
